Tests used:
[1] = molecular target: RAF proto-oncogene serine/threonine-protein kinase (Homo sapiens) (UniProt P04049); experiment: Selectivity interaction (Kinase panel (KiNativ target engagement assay in Jurkat cells)) EUB0001635a RAF1; assay type: cell-based; settings: Selectivity number of off-targets 0.0, Selectivity number of targets 233.0, Source Knowledge https://www.sciencedirect.com/science/article/pii/S2451945619300674?via%3Dihub, at 1 µM
[2] = molecular target: Serine/threonine-protein kinase 33 (Homo sapiens) (UniProt Q9BYT3); experiment: Selectivity interaction (KinomeScan (DiscoverX)) EUB0000229b STK33; settings: at 10 µM
[3] = molecular target: T1, Serine/threonine-protein kinase LATS2 (Homo sapiens) (UniProt Q9NRM7); experiment: Selectivity interaction (KinomeScan (DiscoverX)) EUB0000695a LATS2; settings: at 100 nM
T1 sequence (whole entry): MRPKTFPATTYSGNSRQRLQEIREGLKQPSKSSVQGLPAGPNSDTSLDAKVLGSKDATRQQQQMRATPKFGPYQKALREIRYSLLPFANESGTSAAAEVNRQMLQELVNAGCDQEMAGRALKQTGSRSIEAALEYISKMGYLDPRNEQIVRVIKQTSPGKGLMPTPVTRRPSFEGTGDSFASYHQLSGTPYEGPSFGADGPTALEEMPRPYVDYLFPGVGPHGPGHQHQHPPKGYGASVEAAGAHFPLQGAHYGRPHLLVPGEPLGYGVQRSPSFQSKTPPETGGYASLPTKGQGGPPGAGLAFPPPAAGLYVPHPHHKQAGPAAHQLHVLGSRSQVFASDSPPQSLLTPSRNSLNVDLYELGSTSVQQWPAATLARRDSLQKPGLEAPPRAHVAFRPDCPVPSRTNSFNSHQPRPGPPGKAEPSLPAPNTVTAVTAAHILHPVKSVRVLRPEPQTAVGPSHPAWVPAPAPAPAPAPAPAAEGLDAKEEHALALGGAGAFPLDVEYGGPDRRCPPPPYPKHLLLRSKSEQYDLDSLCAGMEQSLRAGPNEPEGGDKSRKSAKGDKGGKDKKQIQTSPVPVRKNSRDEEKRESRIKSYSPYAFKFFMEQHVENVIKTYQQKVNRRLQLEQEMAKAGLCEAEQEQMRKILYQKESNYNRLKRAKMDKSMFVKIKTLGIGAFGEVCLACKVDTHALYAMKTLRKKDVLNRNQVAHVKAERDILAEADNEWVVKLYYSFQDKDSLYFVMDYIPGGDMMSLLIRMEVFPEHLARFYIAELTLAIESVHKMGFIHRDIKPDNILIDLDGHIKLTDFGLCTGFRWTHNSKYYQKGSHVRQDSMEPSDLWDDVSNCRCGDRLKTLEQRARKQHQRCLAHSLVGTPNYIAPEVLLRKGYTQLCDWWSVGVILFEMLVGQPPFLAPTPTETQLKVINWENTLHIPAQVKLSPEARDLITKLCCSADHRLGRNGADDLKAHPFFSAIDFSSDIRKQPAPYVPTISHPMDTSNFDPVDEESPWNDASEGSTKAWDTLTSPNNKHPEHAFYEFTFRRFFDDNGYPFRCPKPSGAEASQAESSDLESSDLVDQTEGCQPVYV

[4] = molecular target: D(2) dopamine receptor (Homo sapiens, UniProt P14416); experiment: Selectivity interaction (GPCR panel (PDSP screen)) EUB0001079a DRD2; settings: at 10 µM
[5] = molecular target: Serine/threonine-protein kinase PLK1 (Homo sapiens, UniProt P53350); experiment: Selectivity interaction (KinomeScan (DiscoverX)) EUB0001079a PLK1; settings: at 1 µM
[6] = molecular target: Transcription initiation factor TFIID subunit 1 (Homo sapiens) (UniProt P21675); experiment: Selectivity interaction (Bromodomain panel (DSF asssay)) EUB0000270b TAF1
[7] = molecular target: MAP kinase-interacting serine/threonine-protein kinase 1 (Homo sapiens) (UniProt Q9BUB5); experiment: Selectivity interaction (KinomeScan (DiscoverX)) EUB0001049a MKNK1; settings: at 1 µM
[8] = molecular target: ALK tyrosine kinase receptor (Homo sapiens, UniProt Q9UM73); experiment: Selectivity interaction (Upstate Kinase Profiler service (Millipore)) EUB0000056c ALK; settings: at 1 µM
[9] = molecular target: Serine/threonine-protein kinase VRK2 (Homo sapiens) (UniProt Q86Y07); experiment: Selectivity interaction (KinomeScan (DiscoverX)) EUB0001619a VRK2; settings: at 1 µM
[10] = tested on: Tyrosine-protein kinase ABL1 (Homo sapiens), P00519 [T315I]; settings: at 10 µM

Chain of MAP kinase-interacting serine/threonine-protein kinase 1 (Homo sapiens) (Q9BUB5 whole entry, looked up): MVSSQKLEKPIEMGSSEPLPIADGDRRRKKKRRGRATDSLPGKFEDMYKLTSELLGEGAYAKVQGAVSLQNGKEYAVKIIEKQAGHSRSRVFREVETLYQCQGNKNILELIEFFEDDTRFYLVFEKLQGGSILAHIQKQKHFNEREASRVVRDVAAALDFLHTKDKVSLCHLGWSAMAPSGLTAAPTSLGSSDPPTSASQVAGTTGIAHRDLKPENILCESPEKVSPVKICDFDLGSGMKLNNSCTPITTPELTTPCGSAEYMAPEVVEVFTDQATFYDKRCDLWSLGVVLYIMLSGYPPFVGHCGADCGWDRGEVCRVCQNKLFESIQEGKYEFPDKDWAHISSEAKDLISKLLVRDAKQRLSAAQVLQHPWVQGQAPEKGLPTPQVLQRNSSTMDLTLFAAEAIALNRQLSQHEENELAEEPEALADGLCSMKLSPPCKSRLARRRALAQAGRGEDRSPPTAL
Chain of D(2) dopamine receptor (P14416 whole entry): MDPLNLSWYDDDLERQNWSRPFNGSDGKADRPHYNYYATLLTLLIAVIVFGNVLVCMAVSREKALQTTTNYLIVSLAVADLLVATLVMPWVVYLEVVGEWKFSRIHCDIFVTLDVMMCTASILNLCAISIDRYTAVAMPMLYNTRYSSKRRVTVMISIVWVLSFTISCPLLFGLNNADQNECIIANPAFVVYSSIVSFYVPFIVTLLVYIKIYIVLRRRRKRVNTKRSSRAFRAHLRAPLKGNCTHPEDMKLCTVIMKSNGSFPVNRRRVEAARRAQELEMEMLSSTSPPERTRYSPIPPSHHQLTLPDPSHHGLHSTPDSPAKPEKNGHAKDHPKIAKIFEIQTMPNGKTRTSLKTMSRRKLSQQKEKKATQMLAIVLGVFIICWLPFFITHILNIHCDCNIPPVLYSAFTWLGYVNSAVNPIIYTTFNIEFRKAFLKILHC
Chain of RAF proto-oncogene serine/threonine-protein kinase (Homo sapiens) (P04049 whole entry): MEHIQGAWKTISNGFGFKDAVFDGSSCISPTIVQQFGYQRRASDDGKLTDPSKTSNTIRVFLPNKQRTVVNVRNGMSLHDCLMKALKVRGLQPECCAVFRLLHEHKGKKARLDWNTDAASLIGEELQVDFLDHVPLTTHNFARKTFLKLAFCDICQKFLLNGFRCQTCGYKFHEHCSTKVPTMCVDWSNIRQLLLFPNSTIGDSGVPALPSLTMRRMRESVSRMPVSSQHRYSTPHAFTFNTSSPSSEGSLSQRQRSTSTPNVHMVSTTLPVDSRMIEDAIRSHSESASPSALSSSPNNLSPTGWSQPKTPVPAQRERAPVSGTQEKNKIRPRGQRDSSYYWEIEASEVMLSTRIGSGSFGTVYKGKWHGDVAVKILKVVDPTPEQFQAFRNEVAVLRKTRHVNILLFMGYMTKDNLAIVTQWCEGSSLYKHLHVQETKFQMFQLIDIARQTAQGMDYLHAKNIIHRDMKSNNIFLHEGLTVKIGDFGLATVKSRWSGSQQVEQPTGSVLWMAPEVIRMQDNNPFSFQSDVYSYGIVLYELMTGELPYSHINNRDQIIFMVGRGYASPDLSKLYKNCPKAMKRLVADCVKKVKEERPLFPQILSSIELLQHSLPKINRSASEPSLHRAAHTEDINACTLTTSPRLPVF
Chain of Serine/threonine-protein kinase PLK1 (P53350 whole entry): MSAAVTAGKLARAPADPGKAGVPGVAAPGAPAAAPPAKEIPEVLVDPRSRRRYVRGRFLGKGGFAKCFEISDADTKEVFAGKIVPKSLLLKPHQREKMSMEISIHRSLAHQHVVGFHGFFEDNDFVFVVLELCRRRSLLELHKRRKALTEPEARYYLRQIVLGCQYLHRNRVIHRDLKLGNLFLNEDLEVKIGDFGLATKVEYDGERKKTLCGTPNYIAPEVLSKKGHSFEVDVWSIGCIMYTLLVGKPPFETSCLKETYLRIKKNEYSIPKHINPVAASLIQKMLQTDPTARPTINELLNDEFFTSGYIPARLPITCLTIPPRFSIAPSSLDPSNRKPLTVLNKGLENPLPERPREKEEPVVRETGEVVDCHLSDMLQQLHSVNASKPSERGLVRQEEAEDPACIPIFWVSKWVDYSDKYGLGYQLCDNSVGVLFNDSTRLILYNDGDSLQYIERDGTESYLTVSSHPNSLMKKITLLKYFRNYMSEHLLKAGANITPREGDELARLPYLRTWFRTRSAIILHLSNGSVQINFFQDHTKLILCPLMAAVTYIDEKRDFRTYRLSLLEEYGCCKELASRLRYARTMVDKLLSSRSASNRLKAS
Chain of ALK tyrosine kinase receptor (Q9UM73 19-1620 limits assumed): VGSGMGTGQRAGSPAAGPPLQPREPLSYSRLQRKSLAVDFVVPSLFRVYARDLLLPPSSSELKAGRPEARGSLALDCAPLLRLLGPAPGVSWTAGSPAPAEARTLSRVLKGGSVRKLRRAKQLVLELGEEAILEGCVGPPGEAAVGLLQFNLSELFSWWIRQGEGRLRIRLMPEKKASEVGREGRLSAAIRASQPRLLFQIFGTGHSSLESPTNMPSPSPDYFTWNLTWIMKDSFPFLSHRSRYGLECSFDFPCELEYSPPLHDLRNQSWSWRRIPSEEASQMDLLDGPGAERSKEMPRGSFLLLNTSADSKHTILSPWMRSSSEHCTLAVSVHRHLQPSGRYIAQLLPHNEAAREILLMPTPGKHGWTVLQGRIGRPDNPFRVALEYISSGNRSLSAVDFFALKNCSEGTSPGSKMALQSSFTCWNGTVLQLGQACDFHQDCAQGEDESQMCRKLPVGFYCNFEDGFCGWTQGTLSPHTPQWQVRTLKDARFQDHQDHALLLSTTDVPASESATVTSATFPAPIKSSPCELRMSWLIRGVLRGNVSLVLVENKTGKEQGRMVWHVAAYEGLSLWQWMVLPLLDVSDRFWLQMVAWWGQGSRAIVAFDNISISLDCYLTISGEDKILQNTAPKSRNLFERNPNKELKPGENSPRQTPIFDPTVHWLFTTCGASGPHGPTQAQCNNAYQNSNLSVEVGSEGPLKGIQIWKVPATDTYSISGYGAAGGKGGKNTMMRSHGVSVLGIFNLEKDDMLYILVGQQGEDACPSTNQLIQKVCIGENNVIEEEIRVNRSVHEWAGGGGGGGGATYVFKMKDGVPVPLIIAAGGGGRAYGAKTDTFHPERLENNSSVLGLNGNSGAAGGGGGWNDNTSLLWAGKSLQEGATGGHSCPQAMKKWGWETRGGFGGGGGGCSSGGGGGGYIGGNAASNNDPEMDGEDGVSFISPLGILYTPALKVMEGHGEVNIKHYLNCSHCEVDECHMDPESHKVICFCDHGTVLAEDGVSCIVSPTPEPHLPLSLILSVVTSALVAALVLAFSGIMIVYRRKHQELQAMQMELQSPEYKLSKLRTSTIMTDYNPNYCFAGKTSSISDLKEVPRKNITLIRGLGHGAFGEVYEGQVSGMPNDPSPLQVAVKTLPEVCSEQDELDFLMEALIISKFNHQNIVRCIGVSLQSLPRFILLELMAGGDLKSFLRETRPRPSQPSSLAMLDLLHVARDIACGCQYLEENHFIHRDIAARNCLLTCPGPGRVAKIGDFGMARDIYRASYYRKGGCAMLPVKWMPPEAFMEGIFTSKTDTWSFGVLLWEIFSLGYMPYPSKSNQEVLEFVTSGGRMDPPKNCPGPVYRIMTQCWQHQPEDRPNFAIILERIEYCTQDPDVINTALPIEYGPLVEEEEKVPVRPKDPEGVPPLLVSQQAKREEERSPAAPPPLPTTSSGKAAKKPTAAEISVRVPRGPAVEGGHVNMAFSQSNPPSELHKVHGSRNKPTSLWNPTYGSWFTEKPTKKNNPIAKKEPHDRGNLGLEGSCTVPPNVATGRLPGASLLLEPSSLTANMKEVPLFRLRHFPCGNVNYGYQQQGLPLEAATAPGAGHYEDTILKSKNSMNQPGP
Chain of Serine/threonine-protein kinase VRK2 (Homo sapiens) (Q86Y07 whole entry): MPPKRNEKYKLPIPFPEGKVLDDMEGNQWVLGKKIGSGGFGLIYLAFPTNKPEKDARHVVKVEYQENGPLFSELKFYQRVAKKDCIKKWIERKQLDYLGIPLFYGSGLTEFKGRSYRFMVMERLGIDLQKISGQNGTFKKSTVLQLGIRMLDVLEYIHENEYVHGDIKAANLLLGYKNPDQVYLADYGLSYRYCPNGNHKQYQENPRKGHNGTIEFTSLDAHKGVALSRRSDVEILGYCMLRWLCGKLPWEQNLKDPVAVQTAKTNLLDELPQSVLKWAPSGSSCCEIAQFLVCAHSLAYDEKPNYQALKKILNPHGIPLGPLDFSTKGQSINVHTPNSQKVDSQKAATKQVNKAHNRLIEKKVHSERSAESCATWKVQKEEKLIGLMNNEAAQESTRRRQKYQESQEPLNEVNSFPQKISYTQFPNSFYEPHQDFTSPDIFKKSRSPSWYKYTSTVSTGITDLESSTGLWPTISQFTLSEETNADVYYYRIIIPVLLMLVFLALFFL
Chain of Serine/threonine-protein kinase 33 (Homo sapiens) (Q9BYT3 whole entry, looked up): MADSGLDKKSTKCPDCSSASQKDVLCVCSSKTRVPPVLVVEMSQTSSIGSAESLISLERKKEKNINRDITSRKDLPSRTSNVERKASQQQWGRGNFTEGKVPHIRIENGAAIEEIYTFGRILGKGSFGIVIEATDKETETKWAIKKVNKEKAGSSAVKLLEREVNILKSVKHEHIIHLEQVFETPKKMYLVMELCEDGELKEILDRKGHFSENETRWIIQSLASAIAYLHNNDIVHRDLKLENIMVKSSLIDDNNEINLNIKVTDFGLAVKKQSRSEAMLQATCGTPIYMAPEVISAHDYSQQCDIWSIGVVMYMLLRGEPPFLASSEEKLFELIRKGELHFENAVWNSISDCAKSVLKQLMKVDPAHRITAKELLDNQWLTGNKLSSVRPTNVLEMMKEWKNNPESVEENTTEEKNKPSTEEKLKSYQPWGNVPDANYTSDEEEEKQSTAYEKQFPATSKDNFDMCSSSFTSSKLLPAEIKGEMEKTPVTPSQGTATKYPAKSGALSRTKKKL

SMILES: C=CC(=O)Nc1ccc(C(=O)Nc2[nH]nc3c2CN(C(=O)N[C@H](CN(C)C)c2ccccc2)C3(C)C)cc1
- % of engagement [1]: -6.3%

SMILES: COc1cc(N(C)c2ccnc3ccc(C(F)(F)F)cc23)cc(OC)c1OC
- % binding [2]: 92%

SMILES: Cc1cc(F)c(C(=O)Nc2cccc(-c3nncn3C(C)C)n2)cc1-n1cnc(C2CC2)c1
- % of control [3]: 89%

SMILES: Nc1cnc(N2CCc3cc(S(=O)(=O)Nc4c(F)cc(Cl)cc4F)cc(N4CCCC4=O)c32)nc1 [TP-020n]
- % of inhibition [4]: -0.42%
- % of control [5]: 100%

SMILES: Cc1cc(CN)cc(C)c1-c1ncn(C)c1-c1cncn1C
- dTM [6]: -1.15 K

SMILES: COc1cc(Nc2nc(C)cc(-c3cnn4nc(OC)ccc34)n2)cc(C(F)(F)F)c1
- % of control [7]: 93%

SMILES: Cc1ccc(-c2ccc3c(ccc4sc5c(c43)NC[C@@H](C)NC5=O)n2)cn1
- % of inhibition [8]: 43%

SMILES: N#Cc1cccc(-c2c[nH]c3ncnc(N4CCOCC4)c23)c1
- % of control [9]: 100%

SMILES: CCN(CC)CCCCNc1ncc2cc(-c3cc(OC)cc(OC)c3)c(NC(=O)NC(C)(C)C)nc2n1
- % of control [10]: 100%

From ChEMBL document CHEMBL5465560, “Selectivity Literature for EUbOPEN Chemogenomic Library” (2024)
